Data as given in patent publication US20030194749A1 (priority 2002, published 2003).
Where two headings read alike, the source gives them in different places.

Legend:
ATR = ATR (Homo sapiens, UniProt Q13535); conditions: Sarkaria et al., 1998; cited from earlier work
Flag-tagged ATR = target: T1, Flag-tagged ATR (Homo sapiens, UniProt Q13535); experiment: ATR kinase assay (GST-RAD17 substrate); assay type: biochemical; conditions: 3-4 experiments, read from a graph
T1 construct: expressed in transfected cells
T1 sequence (Q13535 whole entry): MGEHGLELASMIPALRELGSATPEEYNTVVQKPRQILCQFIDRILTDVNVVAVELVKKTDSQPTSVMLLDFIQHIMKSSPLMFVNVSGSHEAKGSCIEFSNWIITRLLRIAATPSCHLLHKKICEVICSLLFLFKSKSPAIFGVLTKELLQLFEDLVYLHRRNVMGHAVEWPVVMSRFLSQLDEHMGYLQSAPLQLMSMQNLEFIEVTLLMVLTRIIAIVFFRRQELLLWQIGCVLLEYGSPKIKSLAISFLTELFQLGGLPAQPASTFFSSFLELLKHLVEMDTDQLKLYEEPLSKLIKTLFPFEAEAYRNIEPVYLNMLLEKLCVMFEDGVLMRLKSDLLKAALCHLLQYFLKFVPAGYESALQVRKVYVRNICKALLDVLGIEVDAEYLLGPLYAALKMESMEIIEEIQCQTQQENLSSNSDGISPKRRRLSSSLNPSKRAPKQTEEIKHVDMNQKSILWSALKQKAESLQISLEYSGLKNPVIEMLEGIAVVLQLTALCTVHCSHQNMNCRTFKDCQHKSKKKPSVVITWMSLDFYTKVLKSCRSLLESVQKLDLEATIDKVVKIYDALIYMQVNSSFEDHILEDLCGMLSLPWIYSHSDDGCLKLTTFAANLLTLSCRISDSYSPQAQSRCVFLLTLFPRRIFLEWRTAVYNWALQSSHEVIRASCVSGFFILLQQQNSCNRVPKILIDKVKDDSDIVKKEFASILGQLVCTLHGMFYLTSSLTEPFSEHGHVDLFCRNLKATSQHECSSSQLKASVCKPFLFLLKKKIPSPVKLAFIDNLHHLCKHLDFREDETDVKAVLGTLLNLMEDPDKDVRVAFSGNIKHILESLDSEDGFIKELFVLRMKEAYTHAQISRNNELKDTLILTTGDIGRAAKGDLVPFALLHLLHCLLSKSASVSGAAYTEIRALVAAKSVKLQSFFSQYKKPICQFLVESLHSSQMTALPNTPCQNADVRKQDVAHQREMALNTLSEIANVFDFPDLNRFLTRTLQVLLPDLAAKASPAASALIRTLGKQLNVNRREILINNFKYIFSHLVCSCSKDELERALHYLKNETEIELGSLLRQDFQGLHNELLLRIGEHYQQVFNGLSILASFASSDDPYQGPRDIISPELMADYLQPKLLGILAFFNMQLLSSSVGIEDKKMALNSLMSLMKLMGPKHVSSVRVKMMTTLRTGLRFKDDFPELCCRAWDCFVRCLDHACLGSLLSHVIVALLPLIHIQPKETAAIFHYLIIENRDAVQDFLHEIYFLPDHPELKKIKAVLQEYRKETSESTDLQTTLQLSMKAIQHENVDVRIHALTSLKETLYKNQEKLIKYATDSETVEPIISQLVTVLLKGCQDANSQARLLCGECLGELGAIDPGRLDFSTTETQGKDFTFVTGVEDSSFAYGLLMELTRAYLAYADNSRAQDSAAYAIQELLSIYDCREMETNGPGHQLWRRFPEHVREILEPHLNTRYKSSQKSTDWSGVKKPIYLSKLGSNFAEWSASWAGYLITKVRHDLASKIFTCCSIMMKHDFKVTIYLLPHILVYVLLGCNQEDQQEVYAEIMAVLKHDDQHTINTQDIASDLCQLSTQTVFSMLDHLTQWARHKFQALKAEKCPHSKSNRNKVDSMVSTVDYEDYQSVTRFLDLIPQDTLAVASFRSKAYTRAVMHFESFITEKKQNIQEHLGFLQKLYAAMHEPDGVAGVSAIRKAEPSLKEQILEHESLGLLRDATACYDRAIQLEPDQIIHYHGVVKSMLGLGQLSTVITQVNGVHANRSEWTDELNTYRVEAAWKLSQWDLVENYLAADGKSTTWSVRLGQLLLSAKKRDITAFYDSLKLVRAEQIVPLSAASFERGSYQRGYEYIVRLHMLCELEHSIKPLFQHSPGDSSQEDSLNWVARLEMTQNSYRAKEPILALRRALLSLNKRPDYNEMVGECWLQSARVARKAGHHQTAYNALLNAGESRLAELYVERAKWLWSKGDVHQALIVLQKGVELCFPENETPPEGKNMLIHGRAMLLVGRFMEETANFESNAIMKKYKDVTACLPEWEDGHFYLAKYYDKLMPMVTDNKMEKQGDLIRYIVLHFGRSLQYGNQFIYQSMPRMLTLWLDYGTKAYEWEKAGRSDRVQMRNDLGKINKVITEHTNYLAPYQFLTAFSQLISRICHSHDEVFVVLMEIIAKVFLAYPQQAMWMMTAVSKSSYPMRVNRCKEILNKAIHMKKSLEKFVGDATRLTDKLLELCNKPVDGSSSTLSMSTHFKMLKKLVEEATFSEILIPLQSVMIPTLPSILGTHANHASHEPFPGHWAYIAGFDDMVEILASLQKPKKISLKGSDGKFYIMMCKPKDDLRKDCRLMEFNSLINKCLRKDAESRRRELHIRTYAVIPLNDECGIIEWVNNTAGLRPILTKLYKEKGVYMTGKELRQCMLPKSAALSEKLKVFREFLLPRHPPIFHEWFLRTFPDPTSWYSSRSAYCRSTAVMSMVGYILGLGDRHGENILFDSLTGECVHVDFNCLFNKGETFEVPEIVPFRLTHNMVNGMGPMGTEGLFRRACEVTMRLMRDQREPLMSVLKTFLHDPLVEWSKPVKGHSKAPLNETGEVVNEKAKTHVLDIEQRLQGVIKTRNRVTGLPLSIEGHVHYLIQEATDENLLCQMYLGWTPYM
Procedure: After the incubation, the beads were washed in 500 μl kinase buffer.
ATR kinase assay: ATR precipitates were incubated with 27.5 μl of kinase buffer+1 μl 32P γ-ATP (1 μCi)+1.5 μl GST-RAD17 substrate (1.5 μg) for exactly 15 min at 30° C. The reactions were stopped by adding 10 μl of 6×SDS sample buffer and boiling the sample for 8 min at 95° C.
The dried gel was either exposed overnight to Biomax film or in the phosphoimager cassette for several hours and quantified using the program Image Quant v1.2 from Molecular Dynamics, Sunnyvale, Calif. (USA). Curves were plotted in the program KaleidaGraph v3.5 (Synergy Software, Reading, Pa.) using the Hill equation. […]
After the kinase reactions were carried out, the samples were separated on a 5-12.5% gradient gel. […] Flag-ATR and labeling with biotin-wortmannin were detected by chemiluminescence using α-Flag M5 or streptavidin HRP antibody. The lower half of the gel was stained with coomassie, dried and analyzed by autoradiography.
Analysis of substrate phosphorylation by autoradiography allows evaluation of the kinase activity that remains after incubation with different amounts of biotin-wortmannin. […] In the lower lane, the amount of Flag-tagged ATR was determined by using a Flag specific antibody. This signal was used to normalize for equal loading to generate quantitative data. […]

[1] = Stability in buffer systems by thin layer chromatography; assay type: physicochemical; conditions: most conditions tested (not 1 M Tris)
Procedure: For thin layer chromatography (TLC), Silica gel glass plates (0.25 mm) were used to separate different components in hexane:ethylacetate (1:2) as solvents. Components were visualized by illumination with long wave ultraviolet light and by dipping into an aqueous solution of ceric ammonium molybdate followed by heating.
Tris based (pH 7.5, 8)and Hepes (pH 7.5, 8) based buffer systems were tested for incubations for 30 min at 4° C. and 30° C.

HEK 293T cells = experiment: Capability to enter intact cells (protein labeling after cell incubation); assay type: cell-based, human; conditions: 50 μM, 45 min
Procedure: The media and the inhibitory compound were premixed to reduce toxicity and incubated on the cells for 45 min or 1 h.
After 45 min, the cells were harvested and then lysates were generated. 100 μg of protein was separated on a 5-12.5% gradient gel, transferred to PVDF membrane and either analyzed with α-wortmannin sera or with streptavidin HRP to detect biotin-wortmannin.

ATM = target: T2, ATM (Homo sapiens, UniProt Q13315); experiment: Streptavidin-sepharose pull-down from nuclear extract, ATM; assay type: binding; conditions: HeLa nuclear extract; 150 μM wortmannin or 1 mM ATP
T2 construct: we used nuclear extract for our pull-down experiments; endogenous in cells
Procedure: (§1) For the competition with ATP, ATP was directly added to a final concentration of 1 mM ATP.
(§2) To determine which PIK-related kinases could be pulled-down with BW, we performed several affinity precipitations after incubation with BW concentrations ranging from 0.5-50 μM. As controls, we used the […] compound (negative) and nuclear extracts (positive). We probed a Western blot for the precipitation of ATR, ATM and DNA-PKcs and received a pattern of different sensibility that is related to the IC50s observed in vitro. DNA-PKcs is the most sensitive member to precipitation with BW of the PIK-related kinases we tested and can be precipitated at concentrations as low as 0.5 μM. ATM also seems to be more sensitive to precipitation than ATR, and starts to give a signal at 2 μM. ATR is the least sensitive kinase to precipitation tested, and starts to pull-down at 10 μM.
(§3) Therefore, we performed pull-down reactions with 30 μM biotin-wortmannin using HeLa nuclear extract. […] The proteins that were pull-down were analyzed via Western blot detecting DNA-PKcs, ATM and biotin-wortmannin.

DNA-PKcs = target: T3, DNA-PKcs (Homo sapiens, UniProt P78527); experiment: Streptavidin-sepharose pull-down from nuclear extract, DNA-PKcs; assay type: binding; conditions: HeLa nuclear extract; 150 μM wortmannin or 1 mM ATP
T3 construct: we used nuclear extract for our pull-down experiments; endogenous in cells
Procedure: as §1, §2, §3

PI 3-kinase = conditions: cited from earlier work; for fold less effective than wortmannin towards PI 3-kinase: relative to wortmannin
mTOR (FRAP) = mTOR (FRAP) (Homo sapiens, UniProt P42345); conditions: cited from earlier work

ATR, sequence (Q13535 whole entry): as above

In the case of `COC[C@H]1OC(=O)c2coc3c2[C@@]1(C)C1=C(C3=O)[C@@H]2CCC(=O)[C@@]2(C)C[C@H]1OC(C)=O` [wortmannin, Wortmannin], the IC50 (ATR) is given as 1800 nM, the IC50 (Flag-tagged ATR) is given as 1800 nM and the “time in large part stable in buffer” value [1] is given as “at least 30 min”. The “capability to enter into intact cells” value (HEK 293T cells) was “capable to enter into intact cells”.

In the case of `Nc1ncnc2c1ncn2[C@@H]1O[C@H](COP(=O)(O)OP(=O)(O)OP(=O)(O)O)[C@@H](O)[C@H]1O` [ATP], the “effect of pretreatment on pull-down of ATM with 30 μM biotin-wortmannin” value (ATM) is reported as “did not show an effect” and the “effect of pretreatment on pull-down of DNA-PKcs with 30 μM biotin-wortmannin” value (DNA-PKcs) is reported as “did not show an effect”.

For `COCC1OC(=O)c2coc3c2C1(C)C1=C(C3=O)C2CCC(=O)C2(C)CC1O` (stereo not shown) [11-O-desacetyl wortmannin], the IC50 (PI 3-kinase) is given as 16.7 nM, the “fold less effective than wortmannin towards PI 3-kinase” value (PI 3-kinase) is given as 4 fold and the “fold less effective than wortmannin towards PI 3-kinase” value (PI 3-kinase; listed as 0-11-desacetylwortmannin) is given as “about four”.

In the case of `O=c1cc(N2CCOCC2)oc2c(-c3ccccc3)cccc12` [LY294002, 2-(4-morpholinyl)-S-phenyl-4H-1-benzopyran-4-one], the IC50 (mTOR (FRAP)) is given as roughly 3000 nM.
